Measurements: patent publication US20140357713A1, “ANTIMICROBIAL COMPOUNDS AND METHODS OF USE” (NexMed Holdings, Inc., priority 2012, published 2014)
Counter-ions that a name gives are not always drawn.

Tests used:
Type in all cases: cell-based
[1] = tested on: Acinetobacter baumannii (ATCC 19606); assay: MIC assay with different strains, Example 35
Protocol: (§1) The minimum inhibitory concentration (MIC) is used to determine the lowest concentration of a test product claiming antimicrobial effects that will inhibit growth of a microorganism. Each microbial suspension was adjusted approximately 10^7 to 10^8 colony forming units (CFU) per mL and labeled as the stock suspension. The stock suspension was further diluted to 1:200 in Mueller Hinton broth to obtain a test sample having a concentration of […]. The test sample was then tested for MIC as described in M202.R02. After incubation, each tube was examined for turbidity, which indicated growth or no growth. For the tubes where the product rendered the media turbid, an aliquot of the media was streaked onto agar plates to confirm growth or lack of growth.

[2] = tested on: Escherichia coli ATCC 25922; assay: MIC assay with different strains, Example 35
Protocol: as §1

[3] = tested on: Klebsiella oxytoca (ATCC 43165); assay: MIC assay with different strains, Example 35
Protocol: as §1

[4] = tested on: Acinetobacter iwoffi (ATCC 15309); assay: MIC assay with different strains, Example 35
Protocol: as §1

[5] = tested on: Enterobacter aerogenes (ATCC 13048); assay: MIC assay with different strains, Example 35
Protocol: as §1

Candida albicans = assay: Extended time kill study, Example 34 (0 to 24 h)
Summary of the method: (§2)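 Strain suspensions prepared as for MIC testing were mixed 1:1 with compound solution at higher multiples of MIC. Samples taken over 0 to 24 h were diluted in test medium and plated on agar, and colonies were counted after 24–48 h incubation.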

Staphylococcus aureus = assay: Extended time kill study, Example 34 (0 to 24 h)
Summary of the method: as §2

Escherichia coli = assay: Extended time kill study, Example 34 (0 to 24 h)
Summary of the method: as §2

Pseudomonas aeruginosa = assay: Extended time kill study, Example 34 (0 to 24 h)
Summary of the method: as §2

Aspergillus niger = assay: Extended time kill study, Example 34 (0 to 24 h)
Summary of the method: as §2

## CCCCCCCCCCCCOC(=O)C(C)N(C)C (stereo not shown) [Nex-05, Dodecyl 2-(dimethylamino)propanoate hydrochloride]
[1]; Example 35
  MIC: 0.313%
[1]; Sample Concentration 0.039%
  Growth/no growth: Growth
[1]; Sample Concentration 0.078%
  Growth/no growth: Growth
[1]; Sample Concentration 0.156%
  Growth/no growth: Growth
[2]; Example 35
  MIC: 1.25%
[2]; Sample Concentration 0.039%
  Growth/no growth: Growth
[2]; Sample Concentration 0.078%
  Growth/no growth: Growth
[2]; Sample Concentration 0.156%
  Growth/no growth: Growth
[2]; Sample Concentration 0.313%
  Growth/no growth: Growth
[2]; Sample Concentration 0.625%
  Growth/no growth: Growth
[3]; Example 35
  MIC: 1.25%
[3]; Sample Concentration 0.039%
  Growth/no growth: Growth
[3]; Sample Concentration 0.078%
  Growth/no growth: Growth
[3]; Sample Concentration 0.156%
  Growth/no growth: Growth
[3]; Sample Concentration 0.313%
  Growth/no growth: Growth
[3]; Sample Concentration 0.625%
  Growth/no growth: Growth
[4]; Example 35
  MIC: 0.156%
[4]; Sample Concentration 0.039%
  Growth/no growth: Growth
[4]; Sample Concentration 0.078%
  Growth/no growth: Growth
[5]; Example 35
  MIC: 1.25%
[5]; Sample Concentration 0.039%
  Growth/no growth: Growth
[5]; Sample Concentration 0.078%
  Growth/no growth: Growth
[5]; Sample Concentration 0.156%
  Growth/no growth: Growth
[5]; Sample Concentration 0.313%
  Growth/no growth: Growth
[5]; Sample Concentration 0.625%
  Growth/no growth: Growth
Candida albicans; 1 × MIC, 1 h
  Viable counts in Log10 CFU/mL: 5.62 Log10 CFU/mL
Candida albicans; 1 × MIC, 2 h
  Viable counts in Log10 CFU/mL: 5.60 Log10 CFU/mL
Candida albicans; 1 × MIC, 4 h
  Viable counts in Log10 CFU/mL: 5.60 Log10 CFU/mL
Candida albicans; 1 × MIC, 6 h
  Viable counts in Log10 CFU/mL: 6.02 Log10 CFU/mL
Candida albicans; 1 × MIC, 24 h
  Viable counts in Log10 CFU/mL: >6 Log10 CFU/mL
Candida albicans; 1 × MIC, 0 h
  Viable counts in Log10 CFU/mL: 5.82 Log10 CFU/mL
Candida albicans; 2 × MIC, 1 h
  Viable counts in Log10 CFU/mL: 4.99 Log10 CFU/mL
Candida albicans; 2 × MIC, 2 h
  Viable counts in Log10 CFU/mL: 4.88 Log10 CFU/mL
Candida albicans; 2 × MIC, 4 h
  Viable counts in Log10 CFU/mL: 4.62 Log10 CFU/mL
Candida albicans; 2 × MIC, 6 h
  Viable counts in Log10 CFU/mL: 4.58 Log10 CFU/mL
Candida albicans; 2 × MIC, 24 h
  Viable counts in Log10 CFU/mL: 2.57 Log10 CFU/mL
Candida albicans; 2 × MIC, 0 h
  Viable counts in Log10 CFU/mL: 5.81 Log10 CFU/mL
Candida albicans; 4 × MIC, 1 h
  Viable counts in Log10 CFU/mL: 3.95 Log10 CFU/mL
Candida albicans; 4 × MIC, 2 h
  Viable counts in Log10 CFU/mL: 3.90 Log10 CFU/mL
Candida albicans; 4 × MIC, 4 h
  Viable counts in Log10 CFU/mL: <2.70 Log10 CFU/mL
Candida albicans; 4 × MIC, 6 h
  Viable counts in Log10 CFU/mL: <2.70 Log10 CFU/mL
Candida albicans; 4 × MIC, 24 h
  Viable counts in Log10 CFU/mL: <1 Log10 CFU/mL
Candida albicans; 4 × MIC, 0 h
  Viable counts in Log10 CFU/mL: 5.79 Log10 CFU/mL
Staphylococcus aureus; 1 × MIC, 1 h
  Viable counts, Staphylococcus aureus time kill study: <3 Log10 CFU/mL
Staphylococcus aureus; 1 × MIC, 2 h
  Viable counts, Staphylococcus aureus time kill study: <3 Log10 CFU/mL
Staphylococcus aureus; 1 × MIC, 4 h
  Viable counts, Staphylococcus aureus time kill study: <3 Log10 CFU/mL
Staphylococcus aureus; 1 × MIC, 6 h
  Viable counts, Staphylococcus aureus time kill study: <3 Log10 CFU/mL
Staphylococcus aureus; 1 × MIC, 24 h
  Viable counts, Staphylococcus aureus time kill study: <1 Log10 CFU/mL
Staphylococcus aureus; 1×MIC, time 0
  Viable counts, Staphylococcus aureus time kill study: 6.24 Log10 CFU/mL
Staphylococcus aureus; 2 × MIC, 1 h
  Viable counts, Staphylococcus aureus time kill study: <3 Log10 CFU/mL
Staphylococcus aureus; 2 × MIC, 2 h
  Viable counts, Staphylococcus aureus time kill study: <3 Log10 CFU/mL
Staphylococcus aureus; 2 × MIC, 4 h
  Viable counts, Staphylococcus aureus time kill study: <3 Log10 CFU/mL
Staphylococcus aureus; 2 × MIC, 6 h
  Viable counts, Staphylococcus aureus time kill study: <3 Log10 CFU/mL
Staphylococcus aureus; 2 × MIC, 24 h
  Viable counts, Staphylococcus aureus time kill study: <1 Log10 CFU/mL
Staphylococcus aureus; 2 × MIC, time 0
  Viable counts, Staphylococcus aureus time kill study: 6.25 Log10 CFU/mL
Staphylococcus aureus; 4 × MIC, 1 h
  Viable counts, Staphylococcus aureus time kill study: <3 Log10 CFU/mL
Staphylococcus aureus; 4 × MIC, 2 h
  Viable counts, Staphylococcus aureus time kill study: <3 Log10 CFU/mL
Staphylococcus aureus; 4 × MIC, 4 h
  Viable counts, Staphylococcus aureus time kill study: <3 Log10 CFU/mL
Staphylococcus aureus; 4 × MIC, 6 h
  Viable counts, Staphylococcus aureus time kill study: <3 Log10 CFU/mL
Staphylococcus aureus; 4 × MIC, 24 h
  Viable counts, Staphylococcus aureus time kill study: <1 Log10 CFU/mL
Staphylococcus aureus; 4 × MIC, time 0
  Viable counts, Staphylococcus aureus time kill study: 6.23 Log10 CFU/mL
Escherichia coli; 1 × MIC, 1 h
  Viable counts, Escherichia coli time kill study: <1 Log10 CFU/mL
Escherichia coli; 1 × MIC, 2 h
  Viable counts, Escherichia coli time kill study: <1 Log10 CFU/mL
Escherichia coli; 1 × MIC, 4 h
  Viable counts, Escherichia coli time kill study: <1 Log10 CFU/mL
Escherichia coli; 1 × MIC, 6 h
  Viable counts, Escherichia coli time kill study: <1 Log10 CFU/mL
Escherichia coli; 1 × MIC, 24 h
  Viable counts, Escherichia coli time kill study: <1 Log10 CFU/mL
Escherichia coli; 1×MIC, time 0
  Viable counts, Escherichia coli time kill study: 5.10 Log10 CFU/mL
Escherichia coli; 2 × MIC, 1 h
  Viable counts, Escherichia coli time kill study: <1 Log10 CFU/mL
Escherichia coli; 2 × MIC, 2 h
  Viable counts, Escherichia coli time kill study: <1 Log10 CFU/mL
Escherichia coli; 2 × MIC, 4 h
  Viable counts, Escherichia coli time kill study: <1 Log10 CFU/mL
Escherichia coli; 2 × MIC, 6 h
  Viable counts, Escherichia coli time kill study: <1 Log10 CFU/mL
Escherichia coli; 2 × MIC, 24 h
  Viable counts, Escherichia coli time kill study: <1 Log10 CFU/mL
Escherichia coli; 2 × MIC, time 0
  Viable counts, Escherichia coli time kill study: 5.16 Log10 CFU/mL
Escherichia coli; 4 × MIC, 1 h
  Viable counts, Escherichia coli time kill study: <1 Log10 CFU/mL
Escherichia coli; 4 × MIC, 2 h
  Viable counts, Escherichia coli time kill study: <1 Log10 CFU/mL
Escherichia coli; 4 × MIC, 4 h
  Viable counts, Escherichia coli time kill study: <1 Log10 CFU/mL
Escherichia coli; 4 × MIC, 6 h
  Viable counts, Escherichia coli time kill study: <1 Log10 CFU/mL
Escherichia coli; 4 × MIC, 24 h
  Viable counts, Escherichia coli time kill study: <1 Log10 CFU/mL
Escherichia coli; 4 × MIC, time 0
  Viable counts, Escherichia coli time kill study: 5.21 Log10 CFU/mL
Pseudomonas aeruginosa; 1 × MIC, 1 h
  Viable counts, Pseudomonas aeruginosa time kill study: <1 Log10 CFU/mL
Pseudomonas aeruginosa; 1 × MIC, 2 h
  Viable counts, Pseudomonas aeruginosa time kill study: <1 Log10 CFU/mL
Pseudomonas aeruginosa; 1 × MIC, 4 h
  Viable counts, Pseudomonas aeruginosa time kill study: <1 Log10 CFU/mL
Pseudomonas aeruginosa; 1 × MIC, 6 h
  Viable counts, Pseudomonas aeruginosa time kill study: <1 Log10 CFU/mL
Pseudomonas aeruginosa; 1 × MIC, 24 h
  Viable counts, Pseudomonas aeruginosa time kill study: <1 Log10 CFU/mL
Pseudomonas aeruginosa; 1×MIC, time 0
  Viable counts, Pseudomonas aeruginosa time kill study: 5.30 Log10 CFU/mL
Pseudomonas aeruginosa; 2 × MIC, 1 h
  Viable counts, Pseudomonas aeruginosa time kill study: <1 Log10 CFU/mL
Pseudomonas aeruginosa; 2 × MIC, 2 h
  Viable counts, Pseudomonas aeruginosa time kill study: <1 Log10 CFU/mL
Pseudomonas aeruginosa; 2 × MIC, 4 h
  Viable counts, Pseudomonas aeruginosa time kill study: <1 Log10 CFU/mL
Pseudomonas aeruginosa; 2 × MIC, 6 h
  Viable counts, Pseudomonas aeruginosa time kill study: <1 Log10 CFU/mL
Pseudomonas aeruginosa; 2 × MIC, 24 h
  Viable counts, Pseudomonas aeruginosa time kill study: <1 Log10 CFU/mL
Pseudomonas aeruginosa; 2 × MIC, time 0
  Viable counts, Pseudomonas aeruginosa time kill study: 5.22 Log10 CFU/mL
Pseudomonas aeruginosa; 4 × MIC, 1 h
  Viable counts, Pseudomonas aeruginosa time kill study: <1 Log10 CFU/mL
Pseudomonas aeruginosa; 4 × MIC, 2 h
  Viable counts, Pseudomonas aeruginosa time kill study: <1 Log10 CFU/mL
Pseudomonas aeruginosa; 4 × MIC, 4 h
  Viable counts, Pseudomonas aeruginosa time kill study: <1 Log10 CFU/mL
Pseudomonas aeruginosa; 4 × MIC, 6 h
  Viable counts, Pseudomonas aeruginosa time kill study: <1 Log10 CFU/mL
Pseudomonas aeruginosa; 4 × MIC, 24 h
  Viable counts, Pseudomonas aeruginosa time kill study: <1 Log10 CFU/mL
Pseudomonas aeruginosa; 4 × MIC, time 0
  Viable counts, Pseudomonas aeruginosa time kill study: 5.26 Log10 CFU/mL
Aspergillus niger; 1 × MIC, 1 h
  Viable counts in Log10 CFU/mL: 5.28 Log10 CFU/mL
Aspergillus niger; 1 × MIC, 2 h
  Viable counts in Log10 CFU/mL: 4.78 Log10 CFU/mL
Aspergillus niger; 1 × MIC, 4 h
  Viable counts in Log10 CFU/mL: 4.60 Log10 CFU/mL
Aspergillus niger; 1 × MIC, 6 h
  Viable counts in Log10 CFU/mL: 4.30 Log10 CFU/mL
Aspergillus niger; 1 × MIC, 24 h
  Viable counts in Log10 CFU/mL: 3.30 Log10 CFU/mL
Aspergillus niger; 1 × MIC, 0 h
  Viable counts in Log10 CFU/mL: 5.41 Log10 CFU/mL
Aspergillus niger; 2 × MIC, 1 h
  Viable counts in Log10 CFU/mL: 4.30 Log10 CFU/mL
Aspergillus niger; 2 × MIC, 2 h
  Viable counts in Log10 CFU/mL: 4.70 Log10 CFU/mL
Aspergillus niger; 2 × MIC, 4 h
  Viable counts in Log10 CFU/mL: 3 Log10 CFU/mL
Aspergillus niger; 2 × MIC, 6 h
  Viable counts in Log10 CFU/mL: 4 Log10 CFU/mL
Aspergillus niger; 2 × MIC, 24 h
  Viable counts in Log10 CFU/mL: <2 Log10 CFU/mL
Aspergillus niger; 2 × MIC, 0 h
  Viable counts in Log10 CFU/mL: 5.38 Log10 CFU/mL
Aspergillus niger; 4 × MIC, 1 h
  Viable counts in Log10 CFU/mL: 4.48 Log10 CFU/mL
Aspergillus niger; 4 × MIC, 2 h
  Viable counts in Log10 CFU/mL: 4 Log10 CFU/mL
Aspergillus niger; 4 × MIC, 4 h
  Viable counts in Log10 CFU/mL: 3 Log10 CFU/mL
Aspergillus niger; 4 × MIC, 6 h
  Viable counts in Log10 CFU/mL: 4 Log10 CFU/mL
Aspergillus niger; 4 × MIC, 24 h
  Viable counts in Log10 CFU/mL: <2 Log10 CFU/mL
Aspergillus niger; 4 × MIC, 0 h
  Viable counts in Log10 CFU/mL: 5.50 Log10 CFU/mL
